Measured values: PubChem BioAssay (NCI)
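96-well plates; 48 h exposure; 5 concentrations. Endpoints by linear interpolation between flanking doses. Not reached: highest tested concentration assigned. GI50 = concentration required for 50% inhibition of growth. TGI marks complete inhibition of growth.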

What was measured:
Assay in all cases: NCI anticancer screen, dose series, 48 h
[1] = test system: ACHN renal
[2] = test system: SNB-19 CNS
[3] = test system: DLD-1 colon
[4] = test system: MOLT-4 leukemia
[5] = test system: SW-620 colon
[6] = test system: LXFL 529 NSCLC
[7] = test system: OVCAR-5 ovarian
[8] = test system: LOX IMVI melanoma
[9] = test system: HOP-92 NSCLC
[10] = test system: RXF 393 renal

Structure (SMILES)	TGI [1]	TGI [2]	TGI [3]	TGI [4]	TGI [5]	TGI [6]	TGI [7]	GI50 [1]	GI50 [8]	GI50 [9]	GI50 [3]	GI50 [4]	GI50 [5]	GI50 [6]	GI50 [10]	TGI [8]	TGI [9]	TGI [10]	GI50 [2]	GI50 [7]
C=C1C2CCCC1C1(S(C)(=O)=O)CCCCC21O (configuration not stated)	> 100 µM	> 100 µM	> 100 µM	> 100 µM	> 100 µM	> 100 µM	> 100 µM													
CCN(CC)CCN1C(=O)c2c(c3c4cccc(Cl)c4n(C4OC(CO)C(OC)C(O)C4O)c3c3[nH]c4c(Cl)cccc4c23)C1=O (configuration not stated)								< 0.0001 µM	< 0.0001 µM	0.000362 µM	0.000403 µM	< 0.0001 µM	< 0.0001 µM	0.000116 µM	< 0.0001 µM					
Cc1cc(C)c([O-])c(-[n+]2c(-c3ccccc3)cc(-c3ccccc3)cc2-c2ccccc2)c1	16.6 µM	21 µM	16.7 µM	> 100 µM	15.7 µM	14.4 µM	18.4 µM									11.1 µM	5.48 µM	20.2 µM		
CCP(C)(=O)CC	> 100 µM	> 100 µM	> 100 µM	> 100 µM	> 100 µM	> 100 µM	> 100 µM									> 100 µM	> 100 µM	> 100 µM		
CC1CN1c1c(C(=O)/C=C/c2ccc(F)cc2)c(-c2ccccc2)nn(C)c1=O (configuration not stated)	36.3 µM	30.3 µM	25.4 µM	58.2 µM	32.7 µM	31.7 µM	25.2 µM									26.9 µM	23.2 µM	22 µM		
[CH3][Ge]([CH3])([CH2]CC#N)[S]c1ccccc1	33.1 µM	37.3 µM	31.6 µM	17.6 µM	29.4 µM	27.5 µM	39.5 µM	18 µM	4.36 µM	31.2 µM	14.6 µM	3.58 µM	14.1 µM	13.5 µM	11.8 µM	16.9 µM	79.7 µM	27 µM	18 µM	17.8 µM
COC1(OC)CCC2(C)OC(c3ccccc3)C1O2 (configuration not stated)	> 100 µM	> 100 µM	> 100 µM	> 100 µM	> 100 µM	> 100 µM	> 100 µM									> 100 µM		> 100 µM		
Cc1[nH]c2ccccc2c1/C=C/c1c(C)[nH]c2ccccc12	> 100 µM		> 100 µM	> 100 µM	> 100 µM	> 100 µM	> 100 µM											> 100 µM		
CC(=O)[CH-]C(=O)c1ccccc1.CC(=O)[CH-]C(=O)c1ccccc1.CC[C@H](CCC(C)[C@H]1CCC2[C@@H]3CC=C4C[C@@H]([O-])CC[C@]4(C)C3CC[C@@]21C)C(C)C.CC[C@H](CCC(C)[C@H]1CCC2[C@@H]3CC=C4C[C@@H]([O-])CC[C@]4(C)C3CC[C@@]21C)C(C)C.Cl.[Ti+4] (some centres not stated)	> 25 µM	> 25 µM	> 25 µM	> 25 µM	> 25 µM	> 25 µM	> 25 µM				> 25 µM			> 25 µM	> 25 µM	> 25 µM		> 25 µM		
CN(C)CC1CCCC/C1=N\OC(=O)c1ccccc1 (configuration not stated)	> 100 µM		> 100 µM	> 100 µM	> 100 µM	> 100 µM	> 100 µM									> 100 µM	> 100 µM	> 100 µM		
